Data set [1] relates to HIV-1(IIIB). Description: HIV-1(IIIB)-induced cytopathicity in CEM cell cultures. It is filed as cell-based. The source says:
(§1) Viruses. The origins of MSV, HIV type 1 (HIV-1) (strain IIIB and Ba-L), HIV-2 (strain ROD) and FIV (strain Petaluma) have been described previously (Balzarini et al., AIDS 5: 21-28, 1991; De Clercq et al., Proc. Soc. Exp. Biol. Med. 137:590-594, 1971; Egberink et al., Proc. Natl. Acad. Sci. 87:3087-3091, 1990; Hartmann et al., Antiviral Chem. Chemother. 5:13-19, 1994; Popovic et al., Science 224:497-500, 1984). HIV-1(IIIB) and HIV-2(ROD) stocks were obtained from supernatants of virus-infected MT-4 cell cultures. HIV-1BaL was expanded in human primary M/M, whose supernatants were collected, filtered and stored at −80° C. before use. Characteristics of viral stocks used for this study were 2.1×10^8 HIV-RNA genomes/ml (corresponding to 35 ng of p24 antigen) and 5,000 tissue culture infectious doses 50% per ml (TCID50/ml) as assessed by virus titration in other primary M/M cultures. The isolation and characterization of the clinical HIV-1 isolates L1S, L6S and L6S/PMEA has been reported (Thormar et al., Proc. Natl. Acad. Sci. USA 93:3283-3287, 1995; Van Laethem et al., AIDS 15:553-561, 2001). […] HIV-1/L6S/PMEA is the clinical isolate HIV-1/L6S that has been isolated after culturing the virus for 11 passages in the presence of increasing concentrations of PMEA (adefovir).
(§2) In vitro antiviral assays. The activity against HIV-1- and HIV-2-induced cytopathicity was examined in MT-4 cell cultures at day 5 post infection and based on the determination of cell viability by trypan blue dye staining or in CEM cell cultures at day 4 to 5 post infection and based on the microscopical examination of virus-induced giant cell formation. HIV-1 and HIV-2 were added at 100 CCID50 to the cell cultures.

Another data set deals with CEM cells. Put plainly: Inhibition of CEM cell growth (cytostatic activity). It is filed as cell-based. As to the method:
(§3) Cytostatic and antimetabolic effect of acyclic nucleoside phosphonates in vitro. The assays to examine the inhibition of CEM cell growth by the test compounds have been described previously (Balzarini et al., AIDS 5:21-28, 1991). The 50% cytostatic concentration (CC50) was defined as the concentration of compound that reduced the number of living cells by 50% . To measure MT-4 cell toxicity of the test compounds, 5×10^4 MT-4 cells were incubated in the wells of 96-well microplates in the presence or absence of different concentrations of the test compounds for 5 days at 37° C. The CC50 was then calculated from the number of living cells counted under a microscope by the trypan blue exclusion method.

Data set [2] has as its system HIV-2(ROD). Put plainly: HIV-2(ROD)-induced cytopathicity in CEM cell cultures. It is filed as cell-based. Particulars: Human immunodeficiency virus 2, CCRF-CEM, read-out: EC50 HIV-2 (ROD) (CEM).
Description: as §1, §2

The subject of data set [3] is HIV-1(IIIB). Description: HIV-1(IIIB)-induced cytopathicity in MT-4 cell cultures. Particulars: Human immunodeficiency virus 1, IIIB, MT4; Table 2. It is filed as cell-based.
Description: as §1, §2

For data set [4], the system named is HIV-2(ROD). Put plainly: HIV-2(ROD)-induced cytopathicity in MT-4 cell cultures. It is filed as cell-based. Particulars: Human immunodeficiency virus 2, MT4, read-out: EC50 HIV-2 (ROD) (MT-4).
Description: as §1, §2

Data set [5] concerns MSV. Description: MSV-induced transformation of murine embryo fibroblast C3H/3T3 cell cultures. It is filed as cell-based. Particulars: Mus musculus. As to the method:
The inhibitory effect of the test compounds on MSV-induced transformation of murine embryo fibroblast C3H/3T3 cell cultures was examined microscopically at day 6 post infection. MSV was added at 75 focus-forming units to the cell cultures. The detailed procedures for the antiretroviral evaluations has been described in detail before (Balzarini et al., AIDS 5:21-28, 1991; Balzarini et al., Antimicrob. Agents Chemother. 37:332-338, 1993; De Clercq et al., Proc. Soc. Exp. Biol. Med. 137:590-594, 1971).

The nature of data set [6]: Inhibition of CEM cell growth (cytostatic activity). Particulars: human, CEM cells. It is filed as cell-based. Here is the method:
as §3

Data set [7] in a line: MT-4 cell toxicity (trypan blue exclusion). It is filed as cell-based. The following applies: human, MT-4 cells; reduction of cell viability; Table 2. Here is the method:
as §3

Data set [8] is described as follows: Alteration of C3H cell morphology (minimal inhibitory concentration). It is filed as cell-based, murine. The following applies: mouse, C3H/3T3 embryo fibroblast cells; microscopically visible alteration of cell morphology; > means no visible toxicity at the indicated concentration; read-out: CC50 C3H (minimal inhibitory concentration).
In the next data set the test system is HSV-1 (KOS). Put plainly: Antiviral activity, HSV-1 (KOS), Table 1a. It is filed as cell-based.
The next data set relates to HSV-2 (G). Put plainly: Antiviral activity, HSV-2 (G), Table 1a. It is filed as cell-based.
The next data set deals with HSV-1 TK- VMW 1837. Description: Antiviral activity, HSV-1 TK- VMW 1837, Table 1a. It is filed as cell-based.
The next data set relates to CMV AD-169. Put plainly: Antiviral activity, CMV AD-169, Table 1a. It is filed as cell-based.
For the next data set, the system named is CMV Davis. Description: Antiviral activity, CMV Davis, Table 1a. It is filed as cell-based.
The subject of another data set is VZV TK + OKA. Description: Antiviral activity, VZV TK+ OKA, Table 1a. It is filed as cell-based.
The subject of another data set is VZV TK + YS. Description: Antiviral activity, VZV TK+ YS, Table 1a. It is filed as cell-based.
Another data set concerns VZV TK − 07/1. Put plainly: Antiviral activity, VZV TK- 07/1, Table 1a. It is filed as cell-based.
The subject of a further data set is VZV TK − YS/R. Put plainly: Antiviral activity, VZV TK- YS/R, Table 1a. It is filed as cell-based.
For data set [9], the system named is MSV. Description: Antiviral activity, MSV, Table 1a. It is filed as cell-based.
The test system of a further data set is HIV-2. Put plainly: Antiviral activity, HIV-2, Table 1a. It is filed as cell-based.
Data set [10] relates to HIV-1.
Data set [11] concerns HIV-1. Put plainly: microbe, parasite or virus in culture. Particulars: Human immunodeficiency virus 1, read-out: Antiviral Activity EC50 HIV-1.

In brackets after ≈: the same amount, converted by molar mass. Read-outs that look alike come from different tables or passages of the source. Bounds are passed on as bounds.

Take `Nc1nc(N)c(Br)c(OCCOCP(=O)(O)O)n1` [5-bromo-derivative of 1, 2,4-Diamino-5-bromo-6-[2-(phosphonomethoxy)ethoxy]pyrimidine]: the melting point worked out at 218 °C. Besides, the “Concentration at which active against HIV-1 in CEM cell cultures” value with HIV-1(IIIB) [1] was 2.5 µg/mL. The “Cytotoxicity at 100 μg/mL” value in the data set on CEM cells (100 μg/mL) was “not toxic”.
In the case of `Nc1nc(O)cc(OCCOCP(=O)(O)O)n1` [Compound 4, 2-amino-4-hydroxy-6-[2-(phosphonomethoxy)ethoxy]pyrimidine], the EC50 with HIV-1(IIIB) [1] (Human immunodeficiency virus 1, CCRF-CEM, HIV-1 (IIIB) in CEM, no addition, Table 3, read-out: EC50 as such) amounted to 1.4 ± 0.71 µg/mL (≈ 5.28 µM); in the data set on HIV-1(IIIB) [1] (Human immunodeficiency virus 1, CCRF-CEM, HIV-1 (IIIB) in CEM, Ade 100 μM, read-out: EC50 upon addition of Ade (100 μM)), 1.7 ± 1.2 µg/mL (≈ 6.41 µM); in the data set on HIV-1(IIIB) [1] (Human immunodeficiency virus 1, CCRF-CEM, HIV-1 (IIIB) in CEM, Ado 400 μM, read-out: EC50 upon addition of Ado (400 μM)), 1.4 ± 0.93 µg/mL (≈ 5.28 µM); in the data set on HIV-1(IIIB) [1] (Human immunodeficiency virus 1, CCRF-CEM, HIV-1 (IIIB) in CEM, Guo 10 μM, read-out: EC50 upon addition of Guo (10 μM)) it was 1.9 ± 0.92 µg/mL (≈ 7.17 µM); in the data set on HIV-1(IIIB) [1] (Human immunodeficiency virus 1, CCRF-CEM, HIV-1 (IIIB) in CEM, dCyd 1 mM, read-out: EC50 upon addition of dCyd (1 mM)), 2.4 ± 1.9 µg/mL (≈ 9.05 µM); with HIV-1(IIIB) [1] (Human immunodeficiency virus 1, CCRF-CEM, HIV-1 (IIIB) in CEM, dThd 10 μM, read-out: EC50 upon addition of dThd (10 μM)), 1 ± 0.3 µg/mL (≈ 3.77 µM). In addition, the EC50 in the data set on HIV-1(IIIB) [1] (Human immunodeficiency virus 1, CCRF-CEM, HIV-1(IIIB)-induced cytopathicity in CEM cell cultures, Table 1, read-out: EC50 HIV-1 (CEM)) was 2.2 µg/mL (≈ 8.3 µM); in the data set on HIV-1(IIIB) [1] (Human immunodeficiency virus 1, IIIB, CCRF-CEM, giant cell formation, mean ±SD of 2 to 4 experiments, Table 2, read-out: EC50 HIV-1 (IIIB) (CEM)), 1.4 ± 0.7 µg/mL (≈ 5.28 µM); with HIV-2(ROD) [2], 1.4 ± 1.2 µg/mL (≈ 5.28 µM); in the data set with HIV-1(IIIB) [3], 1.9 ± 0.4 µg/mL (≈ 7.17 µM); with HIV-2(ROD) [4], 2.1 µg/mL (≈ 7.92 µM); with MSV [5] (C3H, read-out: EC50 against MSV-induced C3H cell transformation), 0.05 to 0.15 µg/mL (≈ 0.189 to 0.566 µM). The EC50 in the data set on MSV [5] (MSV-induced C3H cell transformation, Table 2, read-out: EC50 MSV (C3H)) was found to be 0.08 ± 0.03 µg/mL (≈ 0.302 µM). The CC50 in [6] (50% cytostatic concentration, CEM cell proliferation, Table 1, read-out: CC50 (CEM)) came to 2.5 µg/mL (≈ 9.43 µM); in [6] (inhibition of cell proliferation, Table 2, read-out: CC50 CEM), 2.5 ± 0.2 µg/mL (≈ 9.43 µM); in [6] (read-out: CC50 for CEM cells), 2.5 µg/mL (≈ 9.43 µM). The CC50 at 5 days in data set [7] stood at 10 ± 2.2 µg/mL (≈ 37.7 µM). Also, in data set [8], the Minimal concentration causing visible cell morphology alteration is at least 16 µg/mL.
In the case of `C[C@@H](COc1cc(N)nc(N)n1)OCP(=O)(O)O` [Compound 10, 2,4-diamino-6-(S)-[2-(phosphonome-thoxy)propoxy]pyrimidine], in the data set with HSV-1 (KOS), the “Antiviral Activity EC50 HSV-1 (KOS)” value is above 80 µg/mL. Also, the “Antiviral Activity EC50 HSV-2 (G)” value in the data set with HSV-2 (G) was above 80 µg/mL. Besides, in the data set on HSV-1 TK- VMW 1837, the “Antiviral Activity EC50 HSV-1 TK- VMW 1837” value was above 80 µg/mL. Further, the “Antiviral Activity EC50 CMV AD-169” value in the data set on CMV AD-169 was above 50 µg/mL. Further, the “Antiviral Activity EC50 CMV Davis” value in the data set with CMV Davis is above 50 µg/mL. Besides, the “Antiviral Activity EC50 VZV TK + OKA” value with VZV TK + OKA is above 50 µg/mL. Further, the “Antiviral Activity EC50 VZV TK + YS” value with VZV TK + YS is above 50 µg/mL. Moreover, in the data set with VZV TK − 07/1, the “Antiviral Activity EC50 VZV TK − 07/1” value is above 50 µg/mL. Further, the “Antiviral Activity EC50 VZV TK − YS/R” value with VZV TK − YS/R was above 50 µg/mL. Further, in the data set with MSV [9], the “Antiviral Activity EC50 MSV” value came to 6.1 µg/mL. Also, the “Antiviral Activity EC50 HIV-2” value in the data set with HIV-2 is 33 µg/mL. For the same compound, the “EC50 HIV-1 (CEM)” value in the data set on HIV-1(IIIB) [1] (HIV-1(IIIB)-induced cytopathicity in CEM cell cultures, Table 1) was 51 µg/mL (≈ 183 µM). Further, in the data set on CEM cells (50% cytostatic concentration, CEM cell proliferation, Table 1), the “CC50 (CEM)” value is above 100 µg/mL. The “Antiviral Activity EC50 HIV-1” value in the data set on HIV-1 [10] amounted to 51 µg/mL.
On to `Cc1cc(OCCOCP(=O)(O)O)nc(N)n1` [Compound H-3453], for which the EC50 with HSV-1 (KOS) (Human alphaherpesvirus 1) is above 400 µg/mL; in the data set on HSV-2 (G) (Human alphaherpesvirus 2), above 400 µg/mL; with HSV-1 TK- VMW 1837 (Human alphaherpesvirus 1, read-out: Antiviral Activity EC50 HSV-1 TK- VMW 1837), above 400 µg/mL; in the data set with CMV AD-169 (Human betaherpesvirus 5, AD169), above 50 µg/mL; in the data set on CMV Davis (Human betaherpesvirus 5), above 50 µg/mL; with VZV TK + OKA (Human alphaherpesvirus 3, read-out: Antiviral Activity EC50 VZV TK + OKA), above 50 µg/mL. The EC50 in the data set on VZV TK + YS (Human alphaherpesvirus 3) was above 50 µg/mL; with VZV TK − 07/1 (Human alphaherpesvirus 3, read-out: Antiviral Activity EC50 VZV TK − 07/1), above 50 µg/mL; in the data set with VZV TK − YS/R (Human alphaherpesvirus 3, read-out: Antiviral Activity EC50 VZV TK − YS/R), above 50 µg/mL; with MSV [9], 89.4 ± 37.6 µg/mL (≈ 340 µM); with HIV-2 (Human immunodeficiency virus 2) it was above 100 µg/mL; with HIV-1 [11], above 100 µg/mL.
`Nc1nc(OCCOCP(=O)(O)O)cc(OCCOCP(=O)(O)O)n1` [Example 10, 2-Amino-4,6-bis[2-(phosphonomethoxy)ethoxy]pyrimidine]: the melting point is 108 °C.

(Values after patent US20050038058A1, “Novel compounds and methods for therapy” (Institute of Organic Chemistry and Biochemistry, priority 2001, published 2005).)
